From patent US6630485B2, “p38 map kinase inhibitors” (Syntex (U.S.A.) LLC, priority 1997, dated 2003) come the findings set out here.

Data set [1] concerns TNF-α. Description: Inhibition of LPS-induced TNF-α production in mice, in vivo assay. To be noted: female BALB/c mice, dosed orally at 30 mg, 30 min before 20 μg LPS i.p., serum TNF-α after 1.5 h. On the procedure: The ability of the compounds of this invention to inhibit the TNF-α release, in vivo, was determined using a minor modification of the methods described in described in Zanetti, G.; Heumann, D., et. al., “Cytokine production after intravenous or peritoneal Gram-negative bacterial challenge in mice,” J. Immunol., 148, 1890, (1992) and Sekut, L., Menius, J. A., et. al., “Evaluation of the significance of elevated levels of systemic and localized tumor necrosis factor in different animal models of inflammation,” J. Lab. Clin. Med., 124, 813, (1994).
Female BALB/c mice weighing 18-21 grams (Charles River, Hollister, Calif.) were acclimated for one week. Groups containing 8 […] each were dosed orally either with the test compounds dissolved in an aqueous vehicle containing 0.9% sodium chloride, 0.5% sodium carboxymethyl-cellulose, 0.4% polysorbate 80, 0.9% benzyl alcohol (CMC vehicle) or only vehicle (control group). After 30 min., the mice were injected intraperitoneally with 20 μg of LPS (Sigma, St. Louis, Mo.). After 1.5 h, the mice were sacrificed by CO2 inhalation and blood was harvested by cardiocentesis. Blood was clarified by centrifugation at 15,600×g for 5 min., and sera were transferred to clean tubes and frozen at −20° C. until analyzed for TNF-α by ELISA assay (Biosource International, Camarillo, Calif.) following the manufacturer's protocol.
The TNF-α inhibitory activity of test materials, i.e., the measure of the TNF-α content in the test group relative to the vehicle treated group (control group) at 30 mg was: […]

The next data set concerns the target T1, p38 MAP kinase (Homo sapiens, UniProt Q16539).
T1 construct: made in house; host or cells: E. coli
Description: Inhibition of p-38 (MAP) kinase, in vitro assay (33P transfer from γ-33P-ATP to Myelin Basic Protein). The class given is biochemical. To be noted: phosphorylated recombinant p38 MAP kinase, MBP substrate, 30° C., read-out: IC50 (concentration causing 50% inhibition of the p-38 enzyme). The method, then:
The p-38 MAP kinase inhibitory activity of compounds of this invention in vitro was determined by measuring the transfer of the γ-phosphate from γ-^33P-ATP by p-38 kinase to Myelin Basic Protein (MBP), using the a minor modification of the method described in Ahn, N. G.; et al. J. of Biol. Chem. Vol. 266(7), 4220-4227, (1991)
The phosphorylated form of the recombinant p38 MAP kinase was expressed with SEK-1 and MEKK in E. coli (see, Khokhlatchev, A. et al. J. of Biol. Chem. Vol. 272(17), 11057-11062, (1997) and then purified by affinity chromatography using a Nickel column.
The phosphorylated p38 MAP kinase was diluted in kinase buffer (20 mM 3-(N-morpholino)propanesulfonic acid, pH 7.2, 25 mM β-glycerol phosphate, 5 mM ethylene glycol-bis(beta-aminoethyl ether)-N,N,N′,N′-tetraacetic acid, 1 mM sodium vanadate, 1 mM dithiothreitol, 40 mM magnesium chloride). Test compound dissolved in DMSO or only DMSO (control) was added and the samples were incubated for 10 min. at 30° C. The kinase reaction was initiated by the addition of a substrate cocktail containing MBP and γ-^33P-ATP. After incubating for an additional 20 min. at 30° C., the reaction was terminated by adding 0.75% phosphoric acid. The phosphorylated MBP was then separated from the residual γ-^33P-ATP using a phosphocellulose membrane (Millipore, Bedfrod, Mass.) and quantitated using a scintillation counter (Packard, Meriden, Conn.).
The p-38 inhibitory activities (expressed as IC50, the concentration causing 50% inhibition of the p-38 enzyme being assayed) of some compounds of the invention is: […]

The subject of data set [2] is TNF-α. Description: Inhibition of LPS-induced TNF-α production in THP1 cells, in vitro assay (ELISA). To be noted: Homo sapiens; THP-1 cells, LPS 0.5 μg/ml, 2 h; read-out: IC50 (half-maximal reduction in 450 nm absorbance, TNF-α ELISA). It is filed as cell-based. The method, then: The ability of the compounds of this invention to inhibit the TNF-α release was determined using a minor modification of the methods described in described in Blifeld, C. et al. Transplantation, Vol. 51(2), 498-503, (1991).
THP-1 cells were suspended in culture medium [RPMI (Gibco-BRL, Gailthersburg, Md.) containing 15% fetal bovine serum, 0.02 mM 2-mercaptoethanol], at a concentration of 2.5×10^6 cells/ml and then plated in 96 well plate (0.2 ml aliquots in each well). Test compounds were dissolved DMSO and then diluted with the culture medium such that the final DMSO concentration was 5%. 20 μl aliquots of test solution or only medium with DMSO (control) were added to each well. The cells were incubated for 30 min., at 37° C. LPS (Sigma, St. Louis, Mo.) was added to the wells at a final concentration of 0.5 μg/ml, and cells were incubated for an additional 2 h. At the end of the incubation period, culture supernatants were collected and the amount of TNF-α present was determined using an ELISA assay as described below.
The amount of human TNF-α present was determined by a specific trapping ELISA assay using two anti-TNF-α antibodies (2TNF-H22 and 2TNF-H34) described in Reimund, J. M., et al. GUT Vol. 39(5), 684-689 (1996).
Polystyrene 96-well plates were coated with 50 μl per well of antibody 2TNF-H22 in PBS (10 μg/ml) and incubated in a humidified chamber at 4° C. overnight. The plates were washed with PBS and then blocked with 5% nonfat-dry milk in PBS for 1 hour at room temperature and washed with 0.1% BSA (bovine serum albumin) in PBS.
TNF standards were prepared from a stock solution of human recombinant TNF-α (R&D Systems, Minneapolis, Minn.). The concentration of the standards in the assay began at 10 ng/ml followed by 6 half log serial dilution's.
25 μl aliquots of the above culture supernatants or TNF standards or only medium (control) were mixed with 25 μl aliquots of biotinylated monoclonal antibody 2TNF-H34 (2 μg/ml in PBS containing 0.1% BSA) and then added to each well. The samples were incubated for 2 h at room temperature with gentle shaking and then washed 3 times with 0.1% BSA in PBS. 50 μl of peroxidase-streptavidin (Zymed, S. San Francisco, Calif.) solution containing 0.416 μg/ml of peroxidase-streptavidin and 0.1% BSA in PBS was added to each well. The samples were incubated for an additional 1 h at room temperature and then washed 4 times with 0.1% BSA in PBS. 50 μl of O-phenylenediamine solution (1 μg/ml O-phenylene-diamine and 0.03% hydrogen peroxide in 0.2M citrate buffer pH 4.5) was added to each well and the samples were incubated in the dark for 30 min., at room temperature. Optical density of the sample and the reference were read at 450 nm and 650 nm, respectively. TNF-α levels were determined from a graph relating the optical density at 450 nm to the concentration used.
The IC50 value was defined as the concentration of the test compound corresponding to half-maximal reduction in 450 nm absorbance.
A general note: In an ELISA, binding on a coated surface is turned into a signal by an enzyme label.

T1 sequence (Q16539 whole entry): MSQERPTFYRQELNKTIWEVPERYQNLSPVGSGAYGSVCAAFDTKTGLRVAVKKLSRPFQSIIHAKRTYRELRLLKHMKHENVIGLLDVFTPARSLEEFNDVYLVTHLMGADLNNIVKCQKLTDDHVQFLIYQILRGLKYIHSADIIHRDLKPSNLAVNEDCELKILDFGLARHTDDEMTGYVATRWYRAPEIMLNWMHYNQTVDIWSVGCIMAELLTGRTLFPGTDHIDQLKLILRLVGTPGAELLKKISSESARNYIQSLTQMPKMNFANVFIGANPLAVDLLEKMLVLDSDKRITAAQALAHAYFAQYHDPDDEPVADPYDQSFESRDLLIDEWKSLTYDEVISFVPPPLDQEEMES

Turning to `Fc1ccc(-c2c(-c3ccncc3)n(OCCN3CCCCC3)c3cccnc23)cc1` [compound 4, 3-(4-Fluorophenyl)-1-[2-(piperidin-1-yl)ethoxy]-2-(pyridin-4-yl)-1H-pyrrolo[3,2-b]pyridine], the melting point – broadly, the temperature, or range, at which the solid turns liquid – is 95.9 to 98.7 °C. `Fc1ccc(-c2c(-c3ccncc3)n(CCN3CCOCC3)c3cccnc23)cc1` [compound 8, 3-(4-Fluorophenyl)-2-(pyridin-4-yl)-1-[2-(morpholin-4-yl)ethyl]-1H-pyrrolo[3,2-b]-pyridine] gave a melting point of 171.2 to 173 °C.

`On1c(-c2ccncc2)c(-c2ccc(F)cc2)c2ncccc21` [compound 1, 3-(4-Fluorophenyl)-1-hydroxy-2-(pyridin-4-yl)-1H-pyrrolo[3,2-b]pyridine] registered a melting point of 225 to 228 °C.

As to `Fc1ccc(-c2c(-c3ccncc3)[nH]c3cccnc23)cc1` [compound 6, 3-(4-Fluorophenyl)-2-(pyridin-4-yl)-1H-pyrrolo[3,2-b]pyridine], the melting point was above 285 °C. In addition, the “% Inhibition (TNF-α content in test group relative to vehicle treated group)” value in the data set on TNF-α [1] is 68%.

Compound `COn1c(-c2ccncc2)c(-c2ccc(F)cc2)c2ncccc21` [compound 2, 3-(4-Fluorophenyl)-1-methoxy-2-(pyridin-4-yl)-1H-pyrrolo[3,2-b]pyridine] displayed a melting point of 168 to 171.5 °C. In addition, the IC50 on p38 MAP kinase came to 68 nM. For the same compound, in the data set on TNF-α [2], the IC50 stood at 460 nM. Moreover, the “% Inhibition (TNF-α content in test group relative to vehicle treated group)” value in the data set on TNF-α [1] worked out at 75%. As to `CCn1c(-c2ccncc2)c(-c2ccc(F)cc2)c2ncccc21` [compound 7, 1-Ethyl-3-(4-fluorophenyl)-2-(pyridin-4-yl)-1H-pyrrolo[3,2-b]pyridine], the melting point fell in the range of 204 to 206 °C. On to `Fc1ccc(-c2c(-c3ccncc3)n(CCN3CCCCC3)c3cccnc23)cc1` [compound 9, 3-(4-Fluorophenyl)-1-[2-(piperidin-1-yl)ethyl]-2-(pyridin-4-yl)-1H-pyrrolo[3,2-b]pyridine], for which the melting point lay in the range of 148.1 to 153.3 °C. Moreover, the IC50 in the data set with TNF-α [2] stood at 300 nM. The compound `Fc1ccc(-c2c(-c3ccncc3)[nH]c3ccncc23)cc1` [compound 105, 3-(4-Fluorophenyl)-2-(pyridin-4-yl)-1H-pyrrolo[3,2-c]pyridine] gave a melting point of 256 to 257 °C. On to `Fc1ccc(-c2c(-c3ccncc3)oc3cccnc23)cc1` [compound 101, 3-(4-Fluorophenyl)-2-(pyridin-4-yl)-furo[3,2-b]pyridine], for which the melting point lay in the range of 141 to 143 °C. In addition, the IC50 on p38 MAP kinase was found to be 85.5 nM. In addition, the “% Inhibition (TNF-α content in test group relative to vehicle treated group)” value with TNF-α [1] was 86%.

`Nc1nccc(-c2oc3cccnc3c2-c2ccc(F)cc2)n1` [compound 103, 2-(2-Aminopyrimidin-4-yl)-3-(4-fluorophenyl)-furo[3,2-b]pyridine] came in with a melting point of 252.9 to 253.7 °C.

On to `N#CCCCn1c(-c2ccncc2)c(-c2ccc(F)cc2)c2nccnc21` [compound 108], for which the values for the IC50 on p38 MAP kinase and in the data set with TNF-α [2] were 747 nM and 8830 nM, respectively.

Consider `OCCNc1cc(-c2[nH]c3nccnc3c2-c2ccc(F)cc2)ccn1` [compound 112], for which the IC50 is 34.4 nM on p38 MAP kinase and 241 nM in the data set on TNF-α [2]. Turning to `Fc1ccc(-c2c(-c3ccncc3)n(OCCN3CCOCC3)c3cccnc23)cc1` [compound 3, 3-(4-Fluorophenyl)-1-[2-(morpholin-4-yl)ethoxy]-2-(pyridin-4-yl)-1H-pyrrolo[3,2-b]pyridine], the melting point lay within 139 to 141 °C. In addition, on p38 MAP kinase, the IC50 stood at 221 nM. In the data set on TNF-α [1], the “% Inhibition (TNF-α content in test group relative to vehicle treated group)” value was found to be 56%. In turn, `Fc1ccc(-c2c(-c3ccncc3)n(OCCN3CCCC3)c3cccnc23)cc1` [compound 5, 3-(4-fluorophenyl)-2-(pyridin-4-yl)-1-[2-(pyrrolidin-1-yl)ethoxy]-1H-pyrrolo[3,2-b]pyridine] had a melting point of 123 to 129 °C. In addition, the IC50 on p38 MAP kinase is 246 nM. In the data set on TNF-α [2], the IC50 is 120 nM.

Turning to `Fc1ccc(-c2c(-c3ccncc3)[nH]c3nccnc23)cc1` [compound 106, 7-(4-Fluorophenyl)-6-(pyridin-4-yl)-5H-pyrrolo[2,3-b]pyrazine], the IC50 turned out to be 120 nM on p38 MAP kinase and 1100 nM with TNF-α [2]. `Fc1ccc(-c2c(-c3ccnc(Cl)n3)oc3cccnc23)cc1` [compound 102, 2-(2-Chloropyrimidin-4-yl)-3-(4-fluorophenyl)-furo[3,2-b]pyridine] had a melting point of 224.8 to 225.2 °C.
